Marks after values point to notes of the source that are not given here.
What follows are compounds tested against hERG (human ether-a-go-go-related gene) potassium channel (Homo sapiens, UniProt Q12809) (assay: QPatch automated patch-clamp hERG activator 4-concentration EC50 assay). Settings: increase of hERG tail current amplitude at 7 second (TL7); 3.3 uM (footnote *); hERG stably expressed in CHO cells.
hERG (human ether-a-go-go-related gene) potassium channel, sequence (Q12809 whole entry): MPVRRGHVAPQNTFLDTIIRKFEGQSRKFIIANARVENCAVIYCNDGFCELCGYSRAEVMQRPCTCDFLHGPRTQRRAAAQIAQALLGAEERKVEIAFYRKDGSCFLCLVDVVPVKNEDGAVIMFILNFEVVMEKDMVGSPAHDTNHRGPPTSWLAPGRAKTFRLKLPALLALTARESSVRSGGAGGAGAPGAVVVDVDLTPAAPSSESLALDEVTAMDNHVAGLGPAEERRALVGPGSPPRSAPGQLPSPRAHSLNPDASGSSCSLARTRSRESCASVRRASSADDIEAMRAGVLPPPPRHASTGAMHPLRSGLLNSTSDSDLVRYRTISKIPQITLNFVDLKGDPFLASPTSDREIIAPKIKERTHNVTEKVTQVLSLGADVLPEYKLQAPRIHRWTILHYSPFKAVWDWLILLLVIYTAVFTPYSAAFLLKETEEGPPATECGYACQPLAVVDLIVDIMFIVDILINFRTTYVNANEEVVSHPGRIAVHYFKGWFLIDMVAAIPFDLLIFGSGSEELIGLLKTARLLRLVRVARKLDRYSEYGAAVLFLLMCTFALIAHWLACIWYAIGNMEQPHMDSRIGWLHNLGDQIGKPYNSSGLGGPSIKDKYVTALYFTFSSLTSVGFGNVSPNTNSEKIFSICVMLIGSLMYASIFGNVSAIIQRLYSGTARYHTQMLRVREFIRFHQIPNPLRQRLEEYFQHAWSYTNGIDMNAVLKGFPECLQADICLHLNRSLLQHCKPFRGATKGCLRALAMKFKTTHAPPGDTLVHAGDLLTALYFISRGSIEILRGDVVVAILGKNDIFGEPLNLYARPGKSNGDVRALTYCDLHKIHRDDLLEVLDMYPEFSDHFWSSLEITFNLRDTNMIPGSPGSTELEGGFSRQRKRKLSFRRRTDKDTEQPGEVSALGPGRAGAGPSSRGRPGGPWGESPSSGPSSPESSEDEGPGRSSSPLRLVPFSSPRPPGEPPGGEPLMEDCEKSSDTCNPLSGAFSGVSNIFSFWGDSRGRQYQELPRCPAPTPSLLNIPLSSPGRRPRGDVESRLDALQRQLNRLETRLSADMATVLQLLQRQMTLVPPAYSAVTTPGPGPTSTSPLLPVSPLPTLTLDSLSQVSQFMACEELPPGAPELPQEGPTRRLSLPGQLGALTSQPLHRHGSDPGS

Row | Compound | % change@TL7 (*@3.3 uM)
1 | COc1c(F)cc(NCc2ccc3cc(-c4nn[nH]n4)oc3c2)cc1Br [Example 1] | 166* %
2 | FC(F)(F)c1ccc(NCc2ccc3cc(-c4nn[nH]n4)oc3c2)cc1Br [Example 3] | 121* %
3 | FC(F)Oc1c(Br)cc(NCc2ccc3cc(-c4nn[nH]n4)oc3c2)cc1Br [Example 4] | 155* %

Same assay, conditions: increase of hERG tail current amplitude at 7 second (TL7); 10 uM; hERG stably expressed in CHO cells

Row | Compound | % change@TL7@10 uM
4 | Fc1ccc(NCc2cc3oc(-c4nnn[nH]4)cc3cc2Cl)cc1CC(F)(F)F [Example 221] | 81%
5 | O=C(O)c1cc2ccc(CNc3ccc(SC(F)(F)F)cc3)cc2o1 [Example 113] | 53%
6 | O=C(O)c1cc2cc(F)c(CNc3cc(C(F)(F)F)c(Br)c(C(F)(F)F)c3)cc2o1 [Example 229] | 424%
7 | CCOc1ccc(NCc2cc3oc(-c4nnn[nH]4)cc3cc2F)cc1Cl [Example 211] | 248%
8 | CCCc1ccc(NCc2cc3cc(-c4nnn[nH]4)oc3cc2F)cc1C(F)(F)F [Example 128] | 142%
9 | CCCc1ccc(NCc2ccc3cc(C(=O)O)oc3c2)cc1C(F)(F)F [Example 95] | 193%
10 | Cc1cc2cc(NCc3ccc4cc(-c5nn[nH]n5)oc4c3)cc(Cl)c2o1 [Example 194] | 205%
11 | N#CCOc1ccc(NCc2cc3oc(-c4nnn[nH]4)cc3cc2Br)cc1C(F)(F)F [Example 155] | 370%
12 | O=C(O)c1cc2ccc(CNc3ccc(SC(F)(F)F)c(Cl)c3)cc2o1 [Example 87] | 326%
13 | COc1cc(NCc2ccc3cc(-c4nn[nH]n4)oc3c2)cc(OC)c1OC [Example 62] | 43%
14 | FC(F)(F)COc1ccc(NCc2cc3oc(-c4nnn[nH]4)cc3cc2Br)cc1C(F)(F)F [Example 164] | 308%
15 | FC(F)(F)Oc1ccc(NCc2cc3oc(-c4nnn[nH]4)cc3cc2Cl)cc1Br [Example 36] | 174%
16 | O=C(O)c1cc2ccc(CNc3cc(Cl)c(F)c(C(F)(F)F)c3)cc2o1 [Example 110] | 76%
17 | N#CCOc1ccc(NCc2cc3oc(-c4nnn[nH]4)cc3cc2Cl)cc1C(F)(F)F [Example 29] | 258%
18 | CCCc1ccc(NCc2ccc3oc(C(=O)O)cc3c2)cc1Cl [Example 121] | 210%
19 | Fc1c(CNc2ccc(OC(F)(F)F)c(Br)c2)ccc2oc(-c3nnn[nH]3)cc12 [Example 140] | 290%
20 | CC(Nc1ccc(OC(F)(F)F)c(Cl)c1)c1ccc2oc(-c3nnn[nH]3)cc2c1 (stereo not shown) [Example 77] | 118%
21 | C=C(C)c1cc(NCc2ccc3cc(-c4nn[nH]n4)oc3c2)ccc1OC(F)(F)F [Example 11] | 129%
22 | Clc1cc2cc(-c3nnn[nH]3)oc2cc1CNc1cc(Cl)c(Cl)c(Cl)c1 [Example 15] | 162%
23 | O=C(O)c1cc2ccc(CNc3ccc(C(F)(F)F)cn3)cc2o1 [Example 112] | 53%
24 | CCOc1ccc(NCc2cc3oc(-c4nnn[nH]4)cc3cc2Cl)cc1Cl [Example 217] | 116%
25 | CCCc1c(C)cc(NCc2cc3oc(-c4nnn[nH]4)cc3cc2Cl)cc1Cl [Example 220] | 148%
26 | FC(F)Oc1ccc(NCc2ccc3c(C(F)(F)F)c(-c4nnn[nH]4)oc3c2)cc1C(F)(F)F [Example 60] | 58%

Row | Compound | % change@TL7@10 uM
27 | FC(F)COc1ccc(NCc2cc3oc(-c4nnn[nH]4)cc3cc2Cl)cc1C(F)(F)F [Example 157] | 350%
28 | CCCc1ccc(NCc2cc3oc(-c4nnn[nH]4)cc3cc2Cl)cc1Cl [Example 12] | 85%
29 | FC(F)(F)COc1ccc(NCc2cc3cc(-c4nnn[nH]4)oc3cc2Cl)cc1C(F)(F)F [Example 135] | 181%
30 | CC(C)Oc1ccc(NCc2ccc3c(C(F)(F)F)c(-c4nnn[nH]4)oc3c2)cc1C(F)(F)F [Example 57] | 76%
31 | Clc1ccc(NCc2cc3cc(-c4nnn[nH]4)oc3cc2Cl)cc1Cl [Example 139] | 112%
32 | Fc1cc2cc(-c3nnn[nH]3)oc2cc1CNc1ccc(Cl)c(Cl)c1 [Example 208] | 285%
33 | FC(F)(F)c1ccc(NCc2ccc3cc(-c4nn[nH]n4)oc3c2)cc1C(F)(F)F [Example 52] | 95%
34 | Cc1cc2cc(-c3nnn[nH]3)oc2cc1CNc1ccc(OCC(F)(F)F)c(C(F)(F)F)c1 [Example 170] | 299%
35 | Cc1cc2cc(NCc3cc4oc(-c5nnn[nH]5)cc4cc3Cl)cc(Cl)c2o1 [Example 188] | 108%
36 | CC(Nc1ccc2c(c1)OC(F)(F)O2)c1ccc2oc(-c3nnn[nH]3)cc2c1 (stereo not shown) [Example 83] | 36%
37 | O=C(O)c1cc2cc(Cl)c(CNc3ccc(OCC(F)(F)F)c(C(F)(F)F)c3)cc2o1 [Example 224] | 222%
38 | O=C(O)c1oc2cc(CNc3ccc(OC(F)(F)F)c(Br)c3)ccc2c1C(F)(F)F [Example 107] | 85%
39 | Fc1cc2cc(-c3nnn[nH]3)oc2cc1CNc1cc(C(F)(F)F)c(Br)c(C(F)(F)F)c1 [Example 159] | 388%
40 | CSc1cccc(NCc2ccc3cc(-c4nn[nH]n4)oc3c2)c1 [Example 28] | 260%
41 | Fc1cc(NCc2cc3oc(-c4nnn[nH]4)cc3cc2F)ccc1Cl [Example 214] | 138%
42 | Fc1c(CNc2ccc(OCC(F)(F)F)c(C(F)(F)F)c2)ccc2oc(-c3nnn[nH]3)cc12 [Example 142] | 188%
43 | O=C(O)c1cc2ccc(CNc3cc(Cl)nc(Cl)c3)cc2o1 [Example 119] | 22%
44 | CSc1ccc(NCc2ccc3cc(-c4nn[nH]n4)oc3c2)cc1C(F)(F)F [Example 26] | 267%
45 | Fc1cc2cc(-c3nnn[nH]3)oc2cc1CNc1ccc(OCC(F)F)c(C(F)(F)F)c1 [Example 162] | 372%
46 | O=C(O)c1cc2cc(F)c(CNc3ccc(OC(F)(F)F)c(Cl)c3)cc2o1 [Example 226] | 182%
47 | Cc1nsc2ccc(NCc3ccc4cc(-c5nn[nH]n5)oc4c3)cc12 [Example 209] | 137%
48 | CCOc1ccc(NCc2ccc3cc(-c4nn[nH]n4)oc3c2)cc1Br [Example 172] | 284%
49 | CCCc1ccc(NCc2ccc3c(C)c(-c4nnn[nH]4)oc3c2)cc1C(F)(F)F [Example 51] | 99%

Row | Compound | % change@TL7@10 uM
50 | CCCc1ccc(NCc2ccc3oc(-c4nnn[nH]4)cc3c2)cc1F [Example 79] | 101%
51 | CCCc1ccc(NCc2ccc3oc(C(=O)O)cc3c2)cc1C(F)(F)F [Example 122] | 184%
52 | O=C(O)c1cc2ccc(CNc3ccc(OC(F)(F)F)c(Cl)c3)cc2o1 [Example 88] | 274%
53 | Fc1ccc(NCc2ccc3oc(-c4nnn[nH]4)cc3c2)cc1OC(F)(F)F [Example 72] | 176%
54 | Fc1c(CNc2cc(C(F)(F)F)c(Br)c(C(F)(F)F)c2)ccc2oc(-c3nnn[nH]3)cc12 [Example 143] | 193%
55 | FC(F)(F)Oc1ccc(NCc2ccc3cc(-c4nn[nH]n4)oc3c2)cc1C(F)(F)F [Example 23] | 290%
56 | FC(F)(F)c1ccc(NCc2cc3cc(-c4nnn[nH]4)oc3cc2Cl)cc1Cl [Example 138] | 196%
57 | O=C(O)c1cc2cc(CNc3ccc(Cl)c(Cl)c3)ccc2o1 [Example 123] | 183%
58 | Fc1cc2oc(-c3nnn[nH]3)cc2cc1CNc1cc(C(F)(F)F)c(Br)c(C(F)(F)F)c1 [Example 133] | 326%
59 | Clc1ccc(NCc2ccc3cc(-c4nn[nH]n4)oc3c2)cc1 [Example 33] | 192%
60 | FC(F)(F)Oc1ccc(NCc2ccc3oc(-c4nn[nH]n4)cc3c2)cc1Br [Example 149] | 335%
61 | CCOc1ccc(NCc2cc3oc(-c4nnn[nH]4)cc3cc2Br)cc1C(F)(F)F [Example 178] | 262%
62 | Fc1c(Cl)cc(NCc2cc3oc(-c4nnn[nH]4)cc3cc2Cl)cc1C(F)(F)F [Example 201] | 225%
63 | FC(F)(F)COc1ccc(NCc2cc3oc(-c4nnn[nH]4)cc3cc2Cl)cc1Cl [Example 8] | 128%
64 | Fc1c(CNc2ccc(OCC(F)(F)F)c(C(F)(F)F)c2)ccc2cc(-c3nnn[nH]3)oc12 [Example 154] | 325%
65 | Cc1cc(NCc2cc3oc(-c4nnn[nH]4)cc3cc2Cl)cc(C(F)(F)F)c1 [Example 213] | 144%
66 | O=C(O)c1cc2ccc(CNc3cc(C(F)(F)F)cc(C(F)(F)F)c3)cc2o1 [Example 116] | 31%
67 | O=C(c1ccc(NCc2ccc3cc(-c4nnn[nH]4)oc3c2)cc1)C(F)(F)F [Example 30] | 228%
68 | Fc1ccc(NCc2cc3oc(-c4nnn[nH]4)cc3cc2F)cc1Cl [Example 215] | 132%
69 | FC(F)Oc1ccc(NCc2cc3cc(-c4nnn[nH]4)oc3cc2Cl)cc1C(F)(F)F [Example 134] | 217%
70 | CCCc1ccc(NCc2cc3oc(-c4nnn[nH]4)cc3cc2Cl)cc1C(F)(F)F [Example 31] | 218%

— patent US9255093B2, “Polycyclic HERG activators” (NOVARTIS AG, priority 2014, dated 2016)
